US20170087158A1, “JANUS KINASE INHIBITORS FOR TREATMENT OF DRY EYE AND OTHER EYE RELATED DISEASES” (Incyte Corporation, priority 2008, published 2017)

Key:
[1] = test system: myeloid dendritic cells (DCs); conditions: CD40-induced maturation of myeloid DCs; Saemann et al. 2003; cited from earlier work
[2] = test system: NOD mouse model of autoimmune type 1 diabetes; conditions: Cetkovic-Cvrlje et al. 2003; cited from earlier work

Method for JAK: Compounds herein are tested for inhibitory activity of JAK targets according to the following in vitro assay described in Park et al., Analytical Biochemistry 1999, 269, 94-104. The catalytic domains of human JAK1 (a.a. 837-1142), Jak2 (a.a. 828-1132) and Jak3 (a.a. 781-1124) with an N-terminal His tag are expressed using baculovirus in insect cells and purified. The catalytic activity of JAK1, JAK2 or JAK3 is assayed by measuring the phosphorylation of a biotinylated peptide. The phosphorylated peptide is detected by homogenous time resolved fluorescence (HTRF). IC50s of compounds is measured for each kinase in the reactions that contain the enzyme, ATP and 500 nM peptide in 50 mM Tris (pH 7.8) buffer with 100 mM NaCl, 5 mM DTT, and 0.1 mg/mL (0.01%) BSA. The ATP concentration in the reactions is 90 μM for Jak1, 30 μM for Jak2 and 3 μM for Jak3. Reactions are carried out at room temperature for 1 hr and then stopped with 20 μL 45 mM EDTA, 300 nM SA-APC, 6 nM Eu-Py20 in assay buffer (Perkin Elmer, Boston, Mass.). Binding to the Europium labeled antibody takes place for 40 minutes and HTRF signal is measured on a Fusion plate reader (Perkin Elmer, Boston, Mass.).

COc1cc2ncnc(Nc3ccc(O)c(Br)c3)c2cc1OC [WHI-P-154]
effect on CD40-induced JAK3 activity, costimulatory molecule expression, IL-12 production and allogeneic stimulatory capacity [1]: prevented these effects

COc1cc2ncnc(Nc3ccc(O)cc3)c2cc1OC [JANEX-1]
immunomodulatory activity [2]: potent immunomodulatory activity | onset of diabetes [2]: delayed the onset of diabetes

N#CCC(C1CCCC1)n1cc(-c2ncnc3[nH]ccc23)cn1 (single isomer, unassigned; peak 3) [Example 67 second peak, 3-Cyclopentyl-3-[4-(7H-pyrrolo[2,3-d]pyrimidin-4-yl)-1H-pyrazol-1-yl]propanenitrile]
JAK inhibitor activity relative to its enantiomer (JAK; final products from the enantiomers separated by preparative-HPLC (OD-H)): more active than its enantiomer

N#CC[C@H](C1CCCC1)n1cc(-c2ncnc3[nH]ccc23)cn1 (mixture of isomers) [Example 67, (3R)- and (3S)-3-Cyclopentyl-3-[4-(7H-pyrrolo[2,3-d]pyrimidin-4-yl)-1H-pyrazol-1-yl]propanenitrile]
JAK inhibitor activity (JAK; qualitative, b1163: IC50 of 10 μM or less for any JAK target (JAK1, JAK2, JAK3) is considered active): active JAK inhibitors
